Tests used:
HIV-1 = system: HIV-1; design: method as in PMID 21115794; conditions: cited from earlier work
[1] = Aqueous solubility (excess drug in water, room temperature, overnight, UPLC); format: physicochemical
Experimental: A lipophilic and hydrophobic modified DTG prodrug (called MDTG) was synthesized through myristoylation of the parent drug hydroxyl group. Initially, DTG was dried by co-evaporation from anhydrous pyridine then resuspended in anhydrous DMF and cooled to 0 °C under argon. 2-equivalents DIEA were used to deprotonate the 7-hydroxyl group of DTG, which was then immediately reacted with 2 equivalents myristoyl chloride for 24 h. The resultant product was purified by silica gel column chromatography using an initial mobile phase of 4:1 ethyl acetate: hexanes for 12 fractions, then 9:1 ethyl acetate: hexanes for the remainder. […] ESI-MS specifics (m/z): calculated for C34H45F2N3O6, 629.33 (100%), 630.33 (36.8%), 631.33 (3.9%); found, 630.30. […] The aqueous solubility of DTG and MDTG was evaluated by adding excess drug to water at room temperature then mixing it overnight. […] Solubilized drug in the supernatant was extracted in methanol and measured using a Waters ACQUITY ultra performance liquid chromatography (UPLC) H-Class System with TUV detector and Empower 3 software (Milford, MA). For DTG and MDTG quantitation, drug extracts were separated on a Phenomenex Kinetex 5 μm C18 column (150 × 4.6 mm) (Torrance, CA) using either 65% 50 mM KH2PO4, pH 3.2/35% ACN (DTG) or 90% ACN/10% water (MDTG) with a flow rate of 1.0 mL/min and detected at 254 nm and 230 nm, respectively. […]

decrease in aqueous solubility compared to DTG [1]	SMILES	protein-adjusted inhibitory concentration90 (PA-IC90) (HIV-1)
	C[C@@H]1CCO[C@H]2Cn3cc(C(=O)NCc4ccc(F)cc4F)c(=O)c(O)c3C(=O)N12 [DTG, dolutegravir]	0.064 µg/mL
8.7 fold	CCCCCCCCCCCCCC(=O)Oc1c2n(cc(C(=O)NCc3ccc(F)cc3F)c1=O)C[C@@H]1OCC[C@@H](C)N1C2=O [MDTG]	

Reference: article PMC5799307, “Creation of a long-acting nanoformulated dolutegravir” (Nature Communications, 2018)
